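In this assay, cells in 96-well plates receive the compound at five concentrations for 48 hours. Endpoints are linearly interpolated between the surrounding concentrations. GI50 is the concentration that inhibits growth by half.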 Activity calls are given as the source filed them. Rule as the data show it: active = GI50 up to about 1.1 µM and inactive = higher.
Columns and labels:
Experiment in all cases: NCI anticancer screen, dose series, 48 h
HOP-62 = test system: HOP-62
HCC 2998 = test system: HCC 2998
SK-OV-3 = test system: SK-OV-3
SN12C = test system: SN12C
SK-MEL-28 = test system: SK-MEL-28
HCT-116 = test system: HCT-116
SF-539 = test system: SF-539
COLO 205 = test system: COLO 205
SK-MEL-2 = test system: SK-MEL-2
CCRF-CEM = test system: CCRF-CEM
SK-MEL-5 = test system: SK-MEL-5
NCI-H23 = test system: NCI-H23
SF-268 = test system: SF-268
CAKI-1 = test system: CAKI-1
IGROV-1 = test system: IGROV-1
OVCAR-3 = test system: OVCAR-3
SR = test system: SR
NCI/ADR-RES = test system: NCI/ADR-RES

Measured: GI50

COC(C)(C)[C@H](O)C(O)CC(C)[C@@H]1CCC23CC12CCC1[C@@]2(C)CCC(OC(C)=O)C(C)(C)C2CC(OC2OC(COC(C)=O)C(O)C(O)C2O)[C@]13C (some centres not stated)
inactive: HOP-62 8.49 µM | HCC 2998 1.57 µM | SK-OV-3 9.4 µM | SN12C 2.99 µM | SK-MEL-28 4.26 µM | HCT-116 2.26 µM | SF-539 2.72 µM | COLO 205 3.48 µM | SK-MEL-2 9.29 µM | CCRF-CEM 2.55 µM | SK-MEL-5 5.48 µM | NCI-H23 7.18 µM | SF-268 3.48 µM | CAKI-1 2.92 µM | IGROV-1 2.56 µM | OVCAR-3 3.29 µM

O=C(C(=O)N1CC2C=CC1CC2)c1c[nH]c2ccccc12 (configuration not stated)
inactive: HOP-62 > 100 µM | HCC 2998 > 100 µM | SK-OV-3 > 100 µM | SN12C > 100 µM | HCT-116 > 100 µM | SR > 100 µM | SF-539 > 100 µM | COLO 205 > 100 µM | SK-MEL-2 > 100 µM | CCRF-CEM > 100 µM | SK-MEL-5 > 100 µM | SF-268 > 100 µM | CAKI-1 > 100 µM | IGROV-1 > 100 µM

O=C1NC2(CCN(CCCC3(c4ccc(F)cc4)OCCO3)CC2)Oc2ccccc21
inactive: HOP-62 > 100 µM | HCC 2998 > 100 µM | SK-OV-3 > 100 µM | SN12C > 100 µM | SK-MEL-28 > 100 µM | HCT-116 > 100 µM | SR 39.7 µM | SF-539 42.9 µM | COLO 205 86.7 µM | NCI/ADR-RES 97.9 µM | CCRF-CEM > 100 µM | SK-MEL-5 69.5 µM | NCI-H23 > 100 µM | SF-268 > 100 µM | IGROV-1 > 100 µM

CCOP(=O)(C/C(O)=C1\C(=O)C(CCCNC(=O)OC(C)(C)C)N(Cc2ccc(OC)c(OC)c2)C1=O)OCC (configuration not stated)
inactive: HOP-62 > 100 µM | HCC 2998 > 100 µM | SN12C > 100 µM | SK-MEL-28 > 100 µM | HCT-116 > 100 µM | SR > 100 µM | SF-539 > 100 µM | COLO 205 > 100 µM | SK-MEL-2 > 100 µM | CCRF-CEM > 100 µM | SK-MEL-5 > 100 µM | NCI-H23 > 100 µM | SF-268 > 100 µM | IGROV-1 > 100 µM | OVCAR-3 > 100 µM

CC1(C)C(=O)C(C)(C)C1=S
inactive: HOP-62 > 100 µM | HCC 2998 > 100 µM | SK-OV-3 > 100 µM | SN12C > 100 µM | SK-MEL-28 > 100 µM | HCT-116 > 100 µM | SR > 100 µM | COLO 205 > 100 µM | SK-MEL-2 > 100 µM | CCRF-CEM > 100 µM | SK-MEL-5 > 100 µM | NCI-H23 > 100 µM | SF-268 > 100 µM | CAKI-1 > 100 µM | IGROV-1 > 100 µM | OVCAR-3 > 100 µM

COc1ccc(-c2cc(=O)c3ccccc3[nH]2)c(OC)c1
inactive: HOP-62 > 100 µM | HCC 2998 > 10 µM | SK-OV-3 > 100 µM | SN12C > 100 µM | SK-MEL-28 > 100 µM | HCT-116 > 100 µM | SR > 100 µM | SF-539 > 100 µM | COLO 205 > 100 µM | CCRF-CEM > 100 µM | NCI-H23 > 100 µM | SF-268 > 100 µM | IGROV-1 > 100 µM | OVCAR-3 > 100 µM

CCO/C=C/C(C)C1(C(=O)OCC)CCCCC1=O (configuration not stated)
inactive: HOP-62 > 100 µM | HCC 2998 > 100 µM | SK-OV-3 > 100 µM | SN12C > 100 µM | SK-MEL-28 > 100 µM | HCT-116 > 100 µM | SR > 100 µM | SF-539 > 100 µM | COLO 205 > 100 µM | SK-MEL-2 > 100 µM | CCRF-CEM > 100 µM | SK-MEL-5 > 100 µM | NCI-H23 > 100 µM | SF-268 > 100 µM | CAKI-1 > 100 µM | IGROV-1 > 100 µM | OVCAR-3 > 100 µM

NC1=NN(c2ccccc2)C(=O)C1C(=O)C(=O)Nc1nccs1 (configuration not stated)
inactive: HOP-62 > 100 µM | HCC 2998 > 100 µM | SK-OV-3 > 100 µM | SN12C > 100 µM | SK-MEL-28 > 100 µM | HCT-116 > 100 µM | SR > 100 µM | SF-539 > 100 µM | COLO 205 > 100 µM | SK-MEL-2 > 100 µM | CCRF-CEM > 100 µM | SK-MEL-5 > 100 µM | NCI-H23 > 100 µM | SF-268 > 100 µM | CAKI-1 > 100 µM | IGROV-1 > 100 µM | OVCAR-3 > 100 µM

CCOC(=O)C1=C(Nc2ccc(Br)cc2)OCC1=O
inactive: HOP-62 > 100 µM | HCC 2998 > 100 µM | SK-OV-3 > 100 µM | SN12C > 100 µM | SK-MEL-28 > 100 µM | HCT-116 > 100 µM | SR > 100 µM | SF-539 > 100 µM | COLO 205 > 100 µM | SK-MEL-2 > 100 µM | CCRF-CEM > 100 µM | SK-MEL-5 > 100 µM | NCI-H23 > 100 µM | SF-268 > 100 µM | CAKI-1 > 100 µM | IGROV-1 > 100 µM | OVCAR-3 > 100 µM

Oc1ccc2c3c1OC1C(=NN=C4CCC5(O)C6Cc7ccc(O)c8c7C5(CCN6CC5CC5)C4O8)CCC4(O)C(C2)N(CC2CC2)CCC314 (configuration not stated)
inactive: HOP-62 30.3 µM | HCC 2998 21.5 µM | SK-OV-3 > 51.3 µM | SN12C > 41.3 µM | SK-MEL-28 21.9 µM | HCT-116 16.6 µM | SR 26.7 µM | SF-539 27.1 µM | COLO 205 19.4 µM | SK-MEL-2 13.9 µM | CCRF-CEM 22.9 µM | SK-MEL-5 19 µM | NCI-H23 > 57.5 µM | SF-268 > 50.4 µM | CAKI-1 > 100 µM | IGROV-1 > 100 µM | OVCAR-3 18.5 µM

CCCCCCCCCCCCOP(N)(=O)OCCCCCCCCCCCC
inactive: HOP-62 > 100 µM | HCC 2998 > 100 µM | SK-OV-3 > 100 µM | SN12C > 100 µM | SK-MEL-28 > 100 µM | HCT-116 > 100 µM | SR > 100 µM | SF-539 > 100 µM | COLO 205 > 100 µM | CCRF-CEM > 100 µM | NCI-H23 > 100 µM | SF-268 > 100 µM | IGROV-1 > 100 µM | OVCAR-3 > 100 µM

Nc1ncnc2c1sc(=S)n2-c1ccccc1
inactive: HOP-62 > 100 µM | HCC 2998 > 100 µM | SK-OV-3 > 100 µM | SN12C > 100 µM | SK-MEL-28 > 100 µM | HCT-116 > 100 µM | SR > 100 µM | SF-539 > 100 µM | COLO 205 > 100 µM | SK-MEL-2 > 100 µM | CCRF-CEM > 100 µM | SK-MEL-5 > 100 µM | NCI-H23 > 100 µM | SF-268 > 100 µM | CAKI-1 > 100 µM | IGROV-1 > 100 µM | OVCAR-3 > 100 µM

N/N=C1\C(=O)N(c2ccc(Cl)cc2Cl)C(=O)C(=O)C1c1nc2ccccc2o1 (configuration not stated)
inactive: HOP-62 > 100 µM | HCC 2998 > 100 µM | SK-OV-3 > 100 µM | SN12C > 100 µM | SK-MEL-28 > 100 µM | HCT-116 > 100 µM | SF-539 > 100 µM | COLO 205 > 100 µM | SK-MEL-2 95.7 µM | CCRF-CEM 57.5 µM | SK-MEL-5 > 100 µM | NCI-H23 > 100 µM | SF-268 > 100 µM | CAKI-1 > 100 µM | IGROV-1 > 100 µM | OVCAR-3 > 100 µM

Cc1ccc2nc(NC(=O)C(=O)C(C(=O)c3ccc4ccccc4c3)C3OC(=O)c4ccccc43)sc2c1 (configuration not stated)
inactive: HOP-62 11 µM | HCC 2998 11.3 µM | SK-OV-3 29.9 µM | SN12C 13.5 µM | SK-MEL-28 5.21 µM | HCT-116 5.6 µM | SR 3.33 µM | SF-539 2.63 µM | COLO 205 15.1 µM | SK-MEL-2 14.4 µM | SK-MEL-5 10.5 µM | NCI-H23 4.99 µM | SF-268 8.3 µM | CAKI-1 12.2 µM | IGROV-1 14.9 µM | OVCAR-3 22.9 µM

CC(=O)O[C@H]1CC[C@@]2(C)C(=CC[C@@H]3C2CC[C@]2(C)Nc4[nH]ncc4CC32)C1 (some centres not stated)
inactive: HOP-62 > 100 µM | HCC 2998 > 100 µM | SK-OV-3 > 100 µM | SK-MEL-28 32.2 µM | HCT-116 16.4 µM | SF-539 20 µM | SK-MEL-2 28.2 µM | CCRF-CEM 18.2 µM | SK-MEL-5 19.1 µM | NCI-H23 27.5 µM | CAKI-1 > 100 µM | IGROV-1 75.5 µM | OVCAR-3 19.2 µM

N#CCC(=O)N/N=C1/C(=O)NC(=O)C(=O)C1c1nc2ccccc2s1 (configuration not stated)
inactive: HOP-62 > 100 µM | HCC 2998 > 100 µM | SK-OV-3 > 100 µM | SN12C > 100 µM | SK-MEL-28 > 100 µM | HCT-116 > 100 µM | SR 71.8 µM | SF-539 > 100 µM | COLO 205 > 100 µM | SK-MEL-2 > 100 µM | CCRF-CEM > 100 µM | SK-MEL-5 > 100 µM | NCI-H23 > 100 µM | SF-268 > 100 µM | CAKI-1 > 100 µM | IGROV-1 > 100 µM | OVCAR-3 > 100 µM

CC(C)(C)C1CC[C@H]2c3c([nH]c4ccc(Br)cc34)[C@H]3C(=O)N(c4ccccc4)C(=O)[C@H]3[C@H]2C1 (some centres not stated)
inactive: HOP-62 54 µM | HCC 2998 > 100 µM | SK-OV-3 21.7 µM | SN12C 13.5 µM | SK-MEL-28 41.1 µM | HCT-116 11.3 µM | SR 3.22 µM | COLO 205 7.74 µM | SK-MEL-2 50.9 µM | CCRF-CEM 5.52 µM | SK-MEL-5 28.1 µM | NCI-H23 27.9 µM | SF-268 8.73 µM | CAKI-1 53.7 µM | IGROV-1 > 100 µM | OVCAR-3 75.2 µM
